“Also recorded” adds a separate entry of the source.
Assays:
Assay type in all cases: cell-based
[1] = tested on: human pancreatic epithelial cells PANC-1; test: Senolytic activity on doxorubicin-induced senescent PANC-1 cells (crystal violet survival); details: senescent PANC-1, 1-60 μM, 72 h (FIG. 3a)
Protocol: (§1) The successful conversion to the senescent cell phenotype was confirmed by morphological changes (flattening and cell enlargement) and positivity for lysosomal beta-galactosidase (β-GAL). The SA-β-GAL (senescence-associated β-GAL) senescence assay was performed with the SA-β-Gal Staining Kit (Cell Signaling Technology, Inc., Danvers, MA). Briefly, after fixation with […] for 15 min at room temperature, senescent cells were quantified by calculating the percentage of SA-β-GAL positive (blue stained) cells present in culture by examining 200 cells per well with the phase contrast microscope EVOS XL Cell Imaging System (Thermo Fisher; objective, 40X).
(§2) Senolytic activity on senescent human cells (in 96-well plates) was evaluated after specific treatments (for 72 h), including vehicle (DMSO; negative control), quercetin (Que; positive control) or different compounds according to the ‘invention bearing identification codes as fully illustrated also in patent application WO 2019/008537 A1, filed on May 7, 2017 in the name of Vera Salus Ricerca SrI (FIGS. 1, 2 and 3) from page 91 to page 106 and in the relative Figures. At the end of the treatments, cell survival was quantified by crystal violet staining. […] After further washing with water (3X), 100 μl of acetic acid (10%) were added per well and the absorbance (λ=590 nm) measured with a Synergy spectrophotometer (AHSI). […]

[2] = tested on: human WS1 fibroblast cells; test: Senolytic activity on doxorubicin-induced senescent WS1 fibroblasts (crystal violet survival)
Protocol: as §1
Senolytic activity on senescent human cells (in 96-well plates) was evaluated after specific treatments (for 72 h), including vehicle (DMSO; negative control), quercetin (Que; positive control) or different compounds according to the ‘invention bearing identification codes as fully illustrated also in patent application WO 2019/008537 A1, filed on May 7, 2017 in the name of Vera Salus Ricerca SrI (FIGS. 1, 2 and 3) from page 91 to page 106 and in the relative Figures. At the end of the treatments, cell survival was quantified by crystal violet staining. Briefly, cells were fixed with paraformaldehyde (4%) in PBS for 20 min, washed (2X in distilled water) and stained with 1% crystal violet (for 20 min). After further washing with water (3X), 100 μl of acetic acid (10%) were added per well and the absorbance (λ=590 nm) measured with a Synergy spectrophotometer (AHSI). Each experiment was carried out in quadruplicate and repeated at least three times, on three different days. Senolytic activity was expressed as % of senescent cells eliminated with respect to the control condition (DMSO). Results were presented as means±SEM (standard error of mean) and related analyzes were performed with GraphPadPrism® 6.0 software (CA, USA).
In a first step, the senolytic activities of the compounds according to the invention were investigated in human WS1 fibroblast cells (normal fibroblasts of cutaneous origin, ATCC® CRL-1502™). WS1 cell senescence was induced with 100 nM doxorubicin (24 h) and 12 days of recovery, while the senolytic activity was quantified after treatments with vehicle (DMSO), quercetin (Que, 20 μM), quercetin (20 μM) plus dasatinib (DAS, 200 nM; other positive control) or 18 distinct compounds according to the invention used at a concentration of 20 μM, alone (FIG. 1a) or in the presence of 200 nM dasatinib (FIG. 1b).

[3] = tested on: human renal epithelial cells 786-0; test: Senolytic activity on doxorubicin-induced senescent 786-0 cells (crystal violet survival); details: senescent 786-0, 1-60 μM, 72 h (FIG. 2b)
Protocol: as §1, §2

[4] = tested on: human lung epithelium cells A549; test: Senolytic activity on doxorubicin-induced senescent A549 cells (crystal violet survival); details: senescent A549, 1-60 μM, 72 h (FIG. 3c)
Protocol: as §1, §2

[5] = tested on: human hepatic epithelial cells HepG2; test: Senolytic activity on doxorubicin-induced senescent HepG2 cells (crystal violet survival); details: senescent HepG2, 1-60 μM, 72 h (FIG. 3b)
Protocol: as §1, §2

[6] = tested on: human intestinal epithelium cells HCT116; test: Senolytic activity on doxorubicin-induced senescent HCT116 cells (crystal violet survival); details: senescent HCT116, 1-60 μM, 72 h (FIG. 2a)
Protocol: as §1, §2

## COc1ccc(-c2ccc(C(=O)NCCOCCOc3c(-c4ccc(O)c(O)c4)oc4cc(O)cc(O)c4c3=O)cc2)cc1 [29g]
[1]
  senolytic activity compared with quercetin: significantly higher than quercetin
[2]; senescent WS1, 20 μM alone vs quercetin 20 μM, 72 h (FIG. 1a)
  senolytic effect relative to that of quercetin: ~3 times
[2]; senescent WS1, 20 μM alone, 72 h (FIG. 1a)
  senolytic effect in words, compared with the other compounds / treatments: maximum senolytic effects; also recorded: higher senolytic effect than all the other compounds
[2]; senescent WS1, compound 20 μM alone vs quercetin 20 μM + dasatinib 200 nM, 72 h
  senolytic effect of compound alone compared with the combination quercetin plus dasatinib: greater than the combination of quercetin plus dasatinib
[2]; senescent WS1, compound 20 μM alone, 72 h (FIG. 1a)
  senolytic effect (% of senescent cells eliminated with respect to DMSO control): ~60%
[2]; senescent WS1, compound 20 μM in the presence of 200 nM dasatinib vs quercetin 20 μM + dasatinib 200 nM, 72 h (FIG. 1b)
  senolytic action compared with quercetin plus dasatinib: more effective
[3]
  senolytic activity compared with quercetin: significantly higher than quercetin
[4]
  senolytic activity compared with quercetin: significantly higher than quercetin
[5]
  senolytic activity compared with quercetin: significantly higher than quercetin
[6]
  senolytic activity compared with quercetin: significantly higher than quercetin
